Experimental data published in publication PMC7377361, “Pressurized DNA state inside herpes capsids—A novel antiviral target” (PLoS Pathogens, 2020).

Tests used:
[1] = In vivo toxicity studies in mice (NIH/NIAID preclinical service); settings: for %Lymphocyte / Hematocrit / WBC / AST / Alb:Glob Ratio / Albumin / Amylase / Bile Acids / Cholesterol / Creatine Kinase / GGT / Globin / Total Protein / Triglyceride / BUN / Ca:Phos Ratio / Calcium / Chloride / Glucose / K / Na / Na:K Ratio / Phosphorus / Uric Acid: Mean; for %Lymphocyte / Hematocrit / WBC: CBC (n=1-2); for AST / Alb:Glob Ratio / Albumin / Amylase / Bile Acids / Cholesterol / Creatine Kinase / GGT / Globin / Total Protein / Triglyceride: LIVER (n=5); for BUN / Ca:Phos Ratio / Calcium / Chloride / Glucose / K / Na / Na:K Ratio / Phosphorus / Uric Acid: RENAL (n=5)
Method: A control group was treated with PBS. […] No signs of distress or significant weight loss were observed during the 4 days of treatment. […]
B. In vivo toxicity studies in mice for bPEI 600 and DAB-Am-4. Experiments were conducted through NIAID/NIH preclinical service agreement No HHSN272201700017I/ […]
Procedures and Endpoints:
1- Baseline weights of all mice
2- IP treatment (twice a day, for 4 days)
3- Daily assessment of weights and condition
4- All animals sacrificed the following morning after the last evening treatment 5- Blood samples collected by IC stick for lab tests (liver, spleen and blood profiles) 6- Internal organs examined for signs of gross tissue toxicity
1. Toxicity evaluation of bPEI 600 Da in mice.
A toxicity screen was performed in uninfected mice treated with 3 doses of bPEI 600 Da, administered for 4 days. In this study, 3 doses of 5, 10 and 25 mg/kg/day were administered twice daily IP for 4 days (n=4/group). A control group was treated with the vehicle (PBS). The mice were examined daily and the weights and general condition were recorded daily. To examine liver, renal and blood function parameters, blood samples were obtained by intracardiac puncture at the end of the study (the following day after last dose) and the mice were sacrificed to examine the internal organs for signs of gross tissue toxicity.
The weights were recorded
In order to confirm the results of the lab results obtained in the toxicity study, a second group of slightly larger mice were treated with the high and the low doses of bPEI 600 Da (25 mg/kg and 5 mg/kg, n=6/group) and the vehicle control (PBS, n=4) for 4 days. Blood samples were collected at the end of the study for liver and renal chemistry profiles. The results are shown in the next […]
REN AL PBS 5 mg/kg 25 mg/kg
LIVER PBS 5 mg/kg 25 mg/kg
Al b:Gl ob R a ti o 1 1 1 […]
obtained from the second group of mice treated with bPEI 600 Da for 4 days.
No signs of distress or significant weight loss were ere observed during the […]
show significant differences with the results obtained in the PBS treated group of control mice.
Statistical analysis: Means were compared by Student’s t test, and mortality was compared by Fisher’s exact test, where applicable.
Ethics regulation of Laboratory animals: Animals were housed in facilities approved by the Association for Assessment and Accreditation of Laboratory Animal Care and Use Committee
2. Toxicity evaluation of DAB-Am-4 in mice.
A toxicity screen in uninfected mice was performed. 2 doses of 5 and 25 mg/kg/day were administered twice daily IP for 4 days (n=6/group). A control group was treated with the vehicle […]
The mice were examined daily and the weights and general condition were recorded. […]

[2] = mice, 25 mg/kg/day twice daily IP, 4 days
[3] = mice, 5 mg/kg/day twice daily IP, 4 days

Method for HFF-1 cells: In parallel, for each DNA condensing compound, we determined the cytotoxicity concentration (CC50 value) using standard in vitro cellular replication assays in human foreskin fibroblast (HFF) cells (used as a standard for herpesvirus replication in vitro assays for antiviral compound tests)[48]. Cytotoxicity assays were performed on a parallel set of six-well plates containing confluent monolayers of HFF-1 cells at the same cell amount as used for antiviral plaque reduction assays for EC50 value determination, but cells were uninfected[48].
Cytotoxicity assays were performed on a parallel set of six-well plates containing HFF-1 cells that received the same compound concentrations as used for the antiviral assays but remained uninfected. […]
Each compound was evaluated in a standard cytotoxicity assay by standard methods [100]. […] The optical density was then determined at 550 nm and CC50 values were interpolated from the experimental data.
The inhibition of either Vero cell or HFF-1 cell proliferation was used to refine estimates of cytotoxicity for the compounds and was performed according to standard procedures [101]. […] The plates were incubated for 72 h at 37°C; the cells were then dislodged with trypsin and counted on a Beckman Coulter Counter. […]

Q: With `NCCCN(CCCN)CCCCN(CCCN)CCCN` [DAB-Am-4] as the compound, how does the weight loss [1, 2] read?
A: Its weight loss is ~ 10%.

Q: What about the “weight loss from baseline” value [1, 2] of the same compound?
A: Its value is 2.0 g.

Q: What about the tolerability ([1]; mice, 5, 10 and 25 mg/kg/day, twice daily IP, 4 days) of the same compound?
A: The tolerability was “tolerated well”.

Q: What about the “signs of acute toxicity (lab tests)” value ([1]; mice, 5 and 25 mg/kg/day DAB-Am-4, 5 mg/kg/day DAB-Am-8) of the same compound?
A: Its value is “no conclusive signs of acute toxicity”.

Q: And the “signs of distress during the observation period” value ([1]; mice, low dose 5 mg/kg/day)?
A: The value was “no significant signs”.

Q: And the “%Lymphocyte” value [1, 3]?
A: Its value is 67%.

Q: And the Hematocrit [1, 3]?
A: The Hematocrit was 43.

Q: What about the WBC [1, 3] of the same compound?
A: Its WBC is 7.

Q: What about the AST [1, 3] of the same compound?
A: Its AST is 402.

Q: What about the “Alb:Glob Ratio” value [1, 3] of the same compound?
A: Its value is 1.

Q: And the Albumin [1, 3]?
A: Its Albumin is 3.

Q: What about the Amylase [1, 3] of the same compound?
A: The Amylase was 792.

Q: What about the “Bile Acids” value [1, 3] of the same compound?
A: Its value is 134.

Q: What about the Cholesterol [1, 3] of the same compound?
A: The Cholesterol was 91.

Q: What about the “Creatine Kinase” value [1, 3] of the same compound?
A: Its value is 2340.

Q: And the GGT [1, 3]?
A: Its GGT is < 1.

Q: What about the Globin [1, 3] of the same compound?
A: The Globin was 2.

Q: And the “Total Protein” value [1, 3]?
A: The value was 5.

Q: And the Triglyceride [1, 3]?
A: The Triglyceride was 118.

Q: What about the BUN [1, 3] of the same compound?
A: Its BUN is 35.

Q: And the “Ca:Phos Ratio” value [1, 3]?
A: The value was 1.

Q: And the Calcium [1, 3]?
A: Its Calcium is 9.

Q: What about the Chloride [1, 3] of the same compound?
A: The Chloride was 104.

Q: And the Glucose [1, 3]?
A: The Glucose was 221.

Q: What about the K [1, 3] of the same compound?
A: The K was 7.

Q: What about the Na [1, 3] of the same compound?
A: The Na was 143.

Q: And the “Na:K Ratio” value [1, 3]?
A: Its value is 22.

Q: What about the Phosphorus [1, 3] of the same compound?
A: Its Phosphorus is 11.

Q: And the “Uric Acid” value [1, 3]?
A: Its value is 3.

Q: What about the “%Lymphocyte” value [1, 2] of the same compound?
A: Its value is 61%.

Q: What about the Hematocrit [1, 2] of the same compound?
A: Its Hematocrit is 36.

Q: And the WBC [1, 2]?
A: Its WBC is 4.

Q: And the AST [1, 2]?
A: Its AST is 414.

Q: And the “Alb:Glob Ratio” value [1, 2]?
A: The value was 1.

Q: What about the Albumin [1, 2] of the same compound?
A: Its Albumin is 3.

Q: What about the Amylase [1, 2] of the same compound?
A: The Amylase was 760.

Q: What about the “Bile Acids” value [1, 2] of the same compound?
A: Its value is 13.

Q: What about the Cholesterol [1, 2] of the same compound?
A: The Cholesterol was 85.

Q: What about the “Creatine Kinase” value [1, 2] of the same compound?
A: The value was 3089.

Q: And the GGT [1, 2]?
A: Its GGT is < 1.

Q: What about the Globin [1, 2] of the same compound?
A: The Globin was 2.

Q: What about the “Total Protein” value [1, 2] of the same compound?
A: Its value is 5.

Q: What about the Triglyceride [1, 2] of the same compound?
A: Its Triglyceride is 149.

Q: And the BUN [1, 2]?
A: The BUN was 36.

Q: And the “Ca:Phos Ratio” value [1, 2]?
A: The value was 1.

Q: What about the Calcium [1, 2] of the same compound?
A: Its Calcium is 9.

Q: What about the Chloride [1, 2] of the same compound?
A: Its Chloride is 106.

Q: And the Glucose [1, 2]?
A: The Glucose was 182.

Q: And the K [1, 2]?
A: The K was 6.

Q: What about the Na [1, 2] of the same compound?
A: The Na was 147.

Q: And the “Na:K Ratio” value [1, 2]?
A: The value was 25.

Q: And the Phosphorus [1, 2]?
A: The Phosphorus was 9.

Q: And the “Uric Acid” value [1, 2]?
A: Its value is 5.

Q: And the CC50 (HFF-1 cells)?
A: Its CC50 is 15 µM.
